Source: patent US20070014748A1, “Urea compounds that promote desquamation” (L'OREAL, priority 2005, published 2007)

Experiments:
[1] = tested on: acid proteases of the SC (stratum corneum); experiment: Activating potential on acid proteases of the stratum corneum (Enzchek Bodipyfl-casein fluorimetric assay); assay type: biochemical; conditions: for acid protease activity compared with the control / duration of the activating effect on acid proteases: 1 and 2 M; for acid protease activity compared with the control: 0.1M acetic buffer pH 5.0, SC enzymatic extract; for duration of the activating effect on acid proteases: readings up to 24 h
Method: (§1) Three properties were therefore studied: • The prodesquamating power, by the test of degradation of corneodesmosin in a controlled environment chamber with formulated products containing 5% active agent. […] P According to one of the aspects of the invention, the said compound of formula (I) has a corneodesmosin degrading effect which it stimulates.
The property of activating certain acid proteases of the SC (stratum corneum) is evaluated. The measurement of this activity is carried out by fluorimetric assay with the aid of the Enzchek kit (Molecular Probes). This protocol uses a Bodipyfl-casein substrate which, when hydrolysed, releases fluorescence. The fluorescence released is directly proportional to the protease activity. It is read directly on a 96-well plate in a spectrofluorimeter at 750V at an excitation of 485 nm and an emission of 535 nm.
The results obtained with N-(2-hydroxyethyl)urea (compound according to the invention) are compared with those for urea.
The molecules are prepared at 0, 1, 2 and 4 M in 0.1M acetic buffer; pH 5.0. An enzymatic extract is prepared from acetone powders. 2 ml of PBS buffer +0.1% Triton X100 are brought into contact for 1 h in crushed ice with 200 mg of stratum corneum acetone powders. The mixture is then ground in a potter device and then centrifuged for 10 min at 15 000 g at 4° C. The supernatant is collected. The Enzchek substrate diluted 1/200 is incorporated into each solution containing the molecules. The assays are repeated three times.
The reaction mixture is prepared directly in a white plate. 10 μl of enzymatic extract are added to 200 μl of solution containing the substrate at 0, 1, 2 or 4M. The readings are carried out at t0, 1 2 h, t 16 h and t 24 h.

corneodesmosin = experiment: Degradation of corneodesmosin in a controlled environment chamber (varnished strippings, immunoblot); assay type: biochemical; conditions: for percentages of residual corneodesmosin relative to the control: 5% active agent in base Arlacel/Myrj, 37° C., 70% relative humidity, 5 days, mean of 2 experiments, the lower the percentage, the higher the degradation
Source text: as §1
The molecules are formulated in a neutral base Arlacel/Myrj. The products are in contact with varnished strippings under defined temperature, humidity and incubation time conditions. The corneodesmosin is assayed by immunodetection after incubation. It is studied on an immunoblot after electrophoretic separation and transfer onto a membrane. After specific labelling with the antibody G3619, it is visualized by chemiluminescence.
The Hydrovance® product, which is a mixture comprising N-(2-hydroxyethyl)urea marketed by the company National Starch, is compared with urea and with a control.
Rectangles of 3×3.5 cm^2 are cut out in varnished strippings made on the bottom of dry skin legs. They are treated with 42 mg of product (4 mg/cm^2) each. Controls and assays are carried out in parallel. The assays are incubated at 37° C. and 70% relative humidity for 5 days. The controls are kept for 5 days at −20° C. For each of the samples, acetone powders are made and weighed. The proteins are extracted with 100 μl of complete Laemmli buffer. They are assayed according to the Bradford method. The protein level of each sample is adjusted and will allow direct comparison of the various samples.
The proteins are separated by SDS-Page electrophoresis on 12% acrylamide gel. After transferring the proteins onto a PVDF membrane, the immunodetection is carried out with the anti-corneodesmosin antibody G3619 (Guy Serre) at 1/12 500 according to a conventional Western-blot technique. The visualization is performed by chemiluminescence. The bands detected by fluorSmax (Biorad) are quantified with the software quantity-one. […]
The results are expressed as percentages of residual corneodesmosin relative to the control −80° C. […]

[2] = tested on: keratins and proteins of the SC; experiment: "Keratolytic" potential: solubilization of keratins and proteins of the stratum corneum (electrophoresis gel); conditions: 2M in water +2% CHAPS; room temperature; 12.5% acrylamide gel, silver nitrate staining
Method: as §1
Urea is known for its denaturing activity on keratolytic proteins.
30 mg of acetone powders of stratum corneum of the bottom of the legs of volunteers are prepared and brought into contact with 3 ml of water +2% CHAPS (zwitterionic detergent) for 10 min at room temperature. The mixture is then ground in a potter device and centrifuged for 10 min at 15 000 g. The supernatant is removed. This method makes it possible to remove the very soluble keratins and proteins which would interfere with the interpretation of the results. The pellet is taken up in 300 μl of water+CHAPS and 20 μl are distributed into 10 Eppendorf tubes.
Each molecule to be studied is prepared at 2M in water +2% CHAPS.
200 μl of solution are mixed with 20 μl of extract of acetone powders. The assays are carried out in duplicate. A control with no reagent is performed in parallel. The reaction mixtures are incubated for 10 min at room temperature, they are ground in a potter device and then incubated for 50 min at room temperature. They are centrifuged for 10 min at 15 000 g. […]

NC(N)=O [urea]
acid protease activity compared with the control [1]: slightly activating effect | duration of the activating effect on acid proteases [1]: up to two hours after the start of incubation | percentages of residual corneodesmosin relative to the control (corneodesmosin): 30%

NC(=O)NCCO [Hydrovance, N-(2-hydroxyethyl)urea]
acid protease activity compared with the control [1]: large increase in activity | duration of the activating effect on acid proteases [1]: long-lasting | acid protease activity ([1]; 4M, regardless of the time studied): marked decrease in activity | degradation of a protein substrate by the acid proteases of the SC ([1]; concentration of 0.5 to 2M, in particular 1M): durably stimulates | percentages of residual corneodesmosin relative to the control (corneodesmosin): 23% | prodesquamating effect (corneodesmosin degradation) compared with urea (corneodesmosin; 5% in base Arlacel/Myrj): slightly higher effect than urea | solubilization of SC proteins, gel band pattern compared with urea [2]: distinguishable from urea by the appearance of low MW bands
